The values that follow are results of earlier work, collected in US6004792A, “Human lysophospholipase” (Incyte Pharmaceuticals, Inc., priority 1998, dated 1999).

The Vmax is the rate approached at saturating substrate.

The data set deals with T1, monomeric 24 kD lysophospholipase (LPL) from rat liver (GI 1552244; SEQ ID NO:3) (Rattus norvegicus, UniProt P70470).
T1 construct: isolated a monomeric, 24 kD LPL from rat liver; host or cells: rat liver (enzyme isolated from tissue, Sugimoto et al. 1996)
T1 sequence (P70470 whole entry): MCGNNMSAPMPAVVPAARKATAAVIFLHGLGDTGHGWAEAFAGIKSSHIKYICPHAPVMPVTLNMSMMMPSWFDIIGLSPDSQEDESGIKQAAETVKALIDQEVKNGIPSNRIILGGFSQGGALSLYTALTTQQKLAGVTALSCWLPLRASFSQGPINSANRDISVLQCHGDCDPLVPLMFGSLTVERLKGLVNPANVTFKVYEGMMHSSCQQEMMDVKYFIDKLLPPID
Conditions: substrate 1-palmitoyl-glycero-3-phosphocholine.

Consider `CCCCCCCCCCCCCCCC(=O)OCC(O)COP(=O)([O-])OCC[N+](C)(C)C` (stereo not shown) [1-palmitoyl-glycero-3-phosphocholine], for which the Vmax is 1.55 µM/min/mg.
